From PubChem BioAssay AID248 (DTP/NCI, 2004)
“And” between values parts separate entries of the source, which are not always exact repeats. Identical values can stand only once. Inconclusive results and toxic doses are left out. Cut-off read from the data, not from the text of the source: active = T/C of 150% or more; inactive = T/C below 125%.

Tested on: L1210 leukemia ip in BDF1 mice, survival T/C
Experiment: NCI In Vivo Anticancer Drug Screen. Data for tumor model L1210 Leukemia (intraperitoneal) in B6D2F1 (BDF1) mice
Conditions: higher = longer survival
Method in brief: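 Tumor was transplanted into mice, which were then dosed with test compound or vehicle alone. Survival was recorded for each group, and the treated figure was expressed relative to the control figure.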

[1] = endpoint: mean survival time, dose: 100.0 mg/kg/injection, schedule: Q04DX003 (ip), vehicle: Klucel (hydroxypropylcellulose) (HPC)
[2] = endpoint: mean survival time, dose: 200.0 mg/kg/injection, schedule: Q04DX003 (ip), vehicle: Klucel (hydroxypropylcellulose) (HPC)
[3] = endpoint: mean survival time, dose: 25.0 mg/kg/injection, schedule: Q01DX009 (ip), vehicle: saline with Tween-80
[4] = endpoint: mean survival time, dose: 50.0 mg/kg/injection, schedule: Q01DX009 (ip), vehicle: saline with Tween-80
[5] = endpoint: mean survival time, dose: 100.0 mg/kg/injection, schedule: Q01DX001 (ip), vehicle: carboxymethylcellulose (CMC)
[6] = endpoint: mean survival time, dose: 200.0 mg/kg/injection, schedule: Q01DX001 (ip), vehicle: carboxymethylcellulose (CMC)
[7] = endpoint: mean survival time, dose: 400.0 mg/kg/injection, schedule: Q01DX001 (ip), vehicle: carboxymethylcellulose (CMC)
[8] = endpoint: mean survival time, dose: 100.0 mg/kg/injection, schedule: Q04DX002 (ip), vehicle: saline with Tween-80
[9] = endpoint: mean survival time, dose: 200.0 mg/kg/injection, schedule: Q04DX002 (ip), vehicle: saline with Tween-80
[10] = endpoint: mean survival time, dose: 400.0 mg/kg/injection, schedule: Q04DX002 (ip), vehicle: saline with Tween-80
[11] = endpoint: mean survival time, dose: 100.0 mg/kg/injection, schedule: Q01DX009 (ip), vehicle: Klucel (hydroxypropylcellulose) (HPC)
[12] = endpoint: mean survival time, dose: 200.0 mg/kg/injection, schedule: Q01DX009 (ip), vehicle: Klucel (hydroxypropylcellulose) (HPC)

Measured: T/C

Cc1ccc2c(c1)c(N=NC(N)=S)c(O)n2C1OC(CO)C(O)C(O)C1O (stereo unspecified)
inactive: endpoint: mean survival time, dose: 50.0 mg/kg/injection, schedule: Q01DX005 (ip), vehicle: saline 94 % of control | endpoint: mean survival time, dose: 100.0 mg/kg/injection, schedule: Q01DX005 (ip), vehicle: saline 91 % of control | endpoint: mean survival time, dose: 200.0 mg/kg/injection, schedule: Q01DX005 (ip), vehicle: saline 94 % of control

Cc1c(O)ccc2c1OCC2=O
inactive: endpoint: mean survival time, dose: 100.0 mg/kg/injection, schedule: Q01DX001 (ip), vehicle: Klucel (hydroxypropylcellulose) (HPC) 91 % of control | [1] 104 % of control | endpoint: mean survival time, dose: 200.0 mg/kg/injection, schedule: Q01DX001 (ip), vehicle: Klucel (hydroxypropylcellulose) (HPC) 94 % of control | [2] 98 % of control | endpoint: mean survival time, dose: 400.0 mg/kg/injection, schedule: Q01DX001 (ip), vehicle: Klucel (hydroxypropylcellulose) (HPC) 98 % of control | endpoint: mean survival time, dose: 400.0 mg/kg/injection, schedule: Q04DX003 (ip), vehicle: Klucel (hydroxypropylcellulose) (HPC) 93 % of control

Cc1cc(NC(=O)c2cccc(S(=O)(=O)F)c2)cc(C)c1OCc1nc(N)nc(N)c1-c1ccc(Cl)c(Cl)c1
inactive: endpoint: mean survival time, dose: 100.0 mg/kg/injection, schedule: Q01DX001 (ip), vehicle: saline with Tween-80 97 % of control | endpoint: mean survival time, dose: 200.0 mg/kg/injection, schedule: Q01DX001 (ip), vehicle: saline with Tween-80 88 % of control | endpoint: mean survival time, dose: 400.0 mg/kg/injection, schedule: Q01DX001 (ip), vehicle: saline with Tween-80 101 % of control

c1ccc2c(c1)CCc1ccccc1C2NC1=NCCO1
inactive: endpoint: mean survival time, dose: 12.5 mg/kg/injection, schedule: Q01DX009 (ip), vehicle: saline with Tween-80 94 % of control | endpoint: mean survival time, dose: 12.5 mg/kg/injection, schedule: Q04DX003 (ip), vehicle: saline with Tween-80 97 % of control | [3] 89 % of control | endpoint: mean survival time, dose: 25.0 mg/kg/injection, schedule: Q04DX003 (ip), vehicle: saline with Tween-80 100 % of control | [4] 93 % of control | endpoint: mean survival time, dose: 50.0 mg/kg/injection, schedule: Q04DX003 (ip), vehicle: saline with Tween-80 93 % of control

Cc1c2ccccc2c(CCl)c2ccc3ccccc3c12
inactive: endpoint: mean survival time, dose: 12.5 mg/kg/injection, schedule: Q01DX009 (ip), vehicle: carboxymethylcellulose (CMC) 110 % of control | endpoint: mean survival time, dose: 25.0 mg/kg/injection, schedule: Q01DX009 (ip), vehicle: carboxymethylcellulose (CMC) 113 % of control

O=C(Nc1ccc2ccccc2c1)c1ccc2c(c1)C(=O)OC2=O
inactive: [5] 97 % of control and 100 % of control | endpoint: mean survival time, dose: 100.0 mg/kg/injection, schedule: Q01DX009 (ip), vehicle: carboxymethylcellulose (CMC) 97 % of control and 98 % of control | endpoint: mean survival time, dose: 100.0 mg/kg/injection, schedule: Q04DX002 (ip), vehicle: carboxymethylcellulose (CMC) 96 % of control and 103 % of control | endpoint: mean survival time, dose: 100.0 mg/kg/injection, schedule: Q04DX003 (ip), vehicle: carboxymethylcellulose (CMC) 100 % of control and 91 % of control | [6] 93 % of control and 100 % of control | endpoint: mean survival time, dose: 200.0 mg/kg/injection, schedule: Q01DX009 (ip), vehicle: carboxymethylcellulose (CMC) 96 % of control and 100 % of control | endpoint: mean survival time, dose: 200.0 mg/kg/injection, schedule: Q04DX002 (ip), vehicle: carboxymethylcellulose (CMC) 99 % of control and 86 % of control | endpoint: mean survival time, dose: 200.0 mg/kg/injection, schedule: Q04DX003 (ip), vehicle: carboxymethylcellulose (CMC) 92 % of control and 91 % of control | [7] 93 % of control and 97 % of control | endpoint: mean survival time, dose: 400.0 mg/kg/injection, schedule: Q01DX009 (ip), vehicle: carboxymethylcellulose (CMC) 100 % of control and 104 % of control | endpoint: mean survival time, dose: 400.0 mg/kg/injection, schedule: Q04DX002 (ip), vehicle: carboxymethylcellulose (CMC) 95 % of control and 90 % of control | endpoint: mean survival time, dose: 400.0 mg/kg/injection, schedule: Q04DX003 (ip), vehicle: carboxymethylcellulose (CMC) 88 % of control and 89 % of control

CC(C)CC(C=O)(CCN1CCCCC1)c1cccc2ccccc12 (stereo unspecified)
inactive: [8] 87 % of control and 88 % of control | endpoint: mean survival time, dose: 100.0 mg/kg/injection, schedule: Q04DX002 (ip), vehicle: saline 98 % of control | [9] 94 % of control and 91 % of control | endpoint: mean survival time, dose: 200.0 mg/kg/injection, schedule: Q04DX002 (ip), vehicle: saline 91 % of control | [10] 91 % of control

CCCCCCCCCCCCCCCCCC1=Nc2cc(C)c(C)cc2NC(=O)C1
inactive: [5] 93 % of control | [6] 88 % of control | [7] 86 % of control

CC(=O)c1ccc(N=C(N)N=C(N)N)cc1
inactive: endpoint: mean survival time, dose: 75.0 mg/kg/injection, schedule: Q01DX001 (ip), vehicle: carboxymethylcellulose (CMC) 110 % of control | endpoint: mean survival time, dose: 150.0 mg/kg/injection, schedule: Q01DX001 (ip), vehicle: carboxymethylcellulose (CMC) 93 % of control

CC(C)(C)c1ccc(OC(=O)Nc2ccc(Cl)cc2[N+](=O)[O-])c(Br)c1
inactive: [11] 98 % of control | [12] 93 % of control | endpoint: mean survival time, dose: 400.0 mg/kg/injection, schedule: Q01DX009 (ip), vehicle: Klucel (hydroxypropylcellulose) (HPC) 98 % of control

Cc1ccc(NC(=O)Oc2ccc(Br)cc2Br)c(Cl)c1
inactive: [3] 104 % of control and 106 % of control | [4] 101 % of control and 105 % of control | [8] 101 % of control and 107 % of control | endpoint: mean survival time, dose: 100.0 mg/kg/injection, schedule: Q04DX003 (ip), vehicle: saline with Tween-80 103 % of control | [9] 97 % of control and 101 % of control | endpoint: mean survival time, dose: 200.0 mg/kg/injection, schedule: Q04DX003 (ip), vehicle: saline with Tween-80 113 % of control | [10] 103 % of control and 111 % of control | endpoint: mean survival time, dose: 400.0 mg/kg/injection, schedule: Q04DX003 (ip), vehicle: saline with Tween-80 103 % of control

CC(C)C1(C(=O)O)SCCCS1
inactive: endpoint: mean survival time, dose: 50.0 mg/kg/injection, schedule: Q04DX003 (ip), vehicle: saline 100 % of control | endpoint: mean survival time, dose: 100.0 mg/kg/injection, schedule: Q04DX003 (ip), vehicle: saline 110 % of control | endpoint: mean survival time, dose: 200.0 mg/kg/injection, schedule: Q04DX003 (ip), vehicle: saline 102 % of control | endpoint: mean survival time, dose: 400.0 mg/kg/injection, schedule: Q04DX003 (ip), vehicle: saline 98 % of control

CCOC(=O)c1cc(C)n(-c2ccc(C(=O)O)cc2)c1C
inactive: endpoint: mean survival time, dose: 50.0 mg/kg/injection, schedule: Q01DX009 (ip), vehicle: Klucel (hydroxypropylcellulose) (HPC) 97 % of control | [11] 95 % of control | [1] 98 % of control | [12] 95 % of control | [2] 91 % of control

COc1ccc(OC(=O)Nc2ccc(Cl)cc2Cl)cc1
inactive: [4] 102 % of control | endpoint: mean survival time, dose: 100.0 mg/kg/injection, schedule: Q01DX009 (ip), vehicle: saline with Tween-80 91 % of control | endpoint: mean survival time, dose: 200.0 mg/kg/injection, schedule: Q01DX009 (ip), vehicle: saline with Tween-80 98 % of control

O=C1NC(=O)C2(CCc3ccc(N(CCCl)CCCl)cc32)N1 (stereo unspecified)
inactive: endpoint: median survival time, dose: 100.0 mg/kg/injection, schedule: Q01DX009 (ip), vehicle: Klucel (hydroxypropylcellulose) (HPC) 105 % of control

OCC(O)C(O)/C=N/N(Cc1ccccc1)c1ccccc1 (stereo unspecified)
inactive: endpoint: mean survival time, dose: 50.0 mg/kg/injection, schedule: Q01DX001 (ip), vehicle: carboxymethylcellulose (CMC) 103 % of control | [5] 101 % of control | [6] 101 % of control | [7] 97 % of control

Cc1cc2c(cc1C)N(C(=O)CCl)CCN2C(=O)CCl
inactive: endpoint: mean survival time, dose: 5.0 mg/kg/injection, schedule: Q01DX Z (ip), vehicle: carboxymethylcellulose (CMC) 97 % of control | endpoint: mean survival time, dose: 10.0 mg/kg/injection, schedule: Q01DX Z (ip), vehicle: carboxymethylcellulose (CMC) 105 % of control | endpoint: mean survival time, dose: 20.0 mg/kg/injection, schedule: Q01DX Z (ip), vehicle: carboxymethylcellulose (CMC) 100 % of control | endpoint: mean survival time, dose: 100.0 mg/kg/injection, schedule: Q01DX001 (ip), vehicle: saline 104 % of control | endpoint: mean survival time, dose: 200.0 mg/kg/injection, schedule: Q01DX001 (ip), vehicle: saline 98 % of control | endpoint: mean survival time, dose: 400.0 mg/kg/injection, schedule: Q01DX001 (ip), vehicle: saline 98 % of control
